Read-outs that look alike come from different tables or passages of the source.
Experiments:
[1] = test system: Polyarthritis (adjuvant-induced, heat-killed Mycobacterium butyricum) in male CD rats; assay: Developing Adjuvant-Induced Polyarthritis in Rats; format: in vivo, rat; settings: for % Inhibition: oral, once daily 14 days, non-injected hind paw volume
Protocol: This test is used to determine the ability of compounds to affect the immunological processes involved in the induction and development of arthritis.
(§1) Polyarthritis is induced in male CD rats (150-170 g) by injection of heat-killed Mycobacterium butyricum. Each animal is given 0.1 ml of a 0.5% (5 mg/ml) adjuvant suspension in light mineral oil injected subcutaneously into the plantar surface of the right hind foot. At least 6 rats are used in each test group. Animals are dosed orally with test compound immediately after adjuvant injection, and once daily for a total of 14 days. Foot volumes are measured 24 hours after the final dose by mercury displacement to the lateral malleolus. Mean displacement volumes and their standard errors are calculated for the non-injected hind paws. Untreated normal and arthritic control groups are used as comparison for test compound effect. Results are expressed as percent of control effect.
The experiments reported here are performed using the same procedures as described in Example 3, except that 4-[2-(3',5'-di-t-butyl-4'-hydroxyphenol)ethenyl]pyridine (prior art) is under assay rather than the compound of the invention.

[2] = test system: established adjuvant-induced polyarthritis in rats; assay: Established Adjuvant-Induced Polyarthritis in Rats; format: in vivo, rat
Protocol: as §1
This assay is used to determine the ability of compounds to affect an established chronic inflammatory condition.
Rats in which polyarthritis has become established are selected 14 days after receiving the adjuvant suspension. They are treated daily with oral doses of test compound for 14 days (days 14-27). […] 24 hours after the final dose.

in vivo = settings: rat
Protocol: A 50% ulcerogenic response in the animals tested (UD50) at 200 mg/kg for 4 days is observable when the rats are examined 24 hours after the last dose.

5-Lipoxygenase = target: T1, 5-Lipoxygenase (Oryctolagus cuniculus, UniProt G1SNX0); assay: Hydroxyacid Profile Assay of 5-Lipoxygenase Derived Arachidonic Acid Metabolites (5-HETE biosynthesis by glycogen-elicited PMNs); format: cell-based, rabbit
T1 construct: glycogen elicited rabbit PMNs; endogenous in cells; host or cells: glycogen-elicited rabbit polymorphonuclear leucocytes (PMNs)
T1 sequence (G1SNX0 1-674): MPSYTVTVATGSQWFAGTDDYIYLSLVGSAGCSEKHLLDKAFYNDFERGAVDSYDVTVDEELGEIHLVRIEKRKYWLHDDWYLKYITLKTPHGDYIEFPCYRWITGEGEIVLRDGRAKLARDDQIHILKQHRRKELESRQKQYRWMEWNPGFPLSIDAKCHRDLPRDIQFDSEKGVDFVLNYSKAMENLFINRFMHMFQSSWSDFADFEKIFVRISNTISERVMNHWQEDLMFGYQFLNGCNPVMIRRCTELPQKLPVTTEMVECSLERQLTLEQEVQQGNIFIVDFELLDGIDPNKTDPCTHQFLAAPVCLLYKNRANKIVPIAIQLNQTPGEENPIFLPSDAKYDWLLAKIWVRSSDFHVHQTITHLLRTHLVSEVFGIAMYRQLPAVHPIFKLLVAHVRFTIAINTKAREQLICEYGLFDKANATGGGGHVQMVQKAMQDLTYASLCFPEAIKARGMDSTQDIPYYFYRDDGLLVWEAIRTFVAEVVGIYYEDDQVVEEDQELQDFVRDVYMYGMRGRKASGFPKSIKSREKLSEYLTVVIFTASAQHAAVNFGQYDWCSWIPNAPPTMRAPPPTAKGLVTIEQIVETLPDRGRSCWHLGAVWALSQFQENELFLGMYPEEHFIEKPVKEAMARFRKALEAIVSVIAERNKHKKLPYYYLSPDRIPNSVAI
Protocol: Buffer A (8.70 g NaCl; 0.27 g KCl; 0.42 g Na2 HPO4; 0.76 g KH2 PO4; and 1.00 g dextrose per liter H2 O; pH 7.0) (0.325 ml) is introduced into each of a battery of screwtop culture tubes. Then, a compound (0.100 ml) to be assayed is dispensed into individual tubes. Dose-response curves are determined by triplicate measurements at each concentration. Control tubes receive Buffer A (0.100 ml) in lieu of compound. Next, glycogen elicited rabbit PMNs (2×10^7 cells/tube; 4×10^7 cells/ml (0.500 ml) are added to each tube. The tubes are vortexed and preincubated in a shaking 37° C. water bath for 15 minutes.
Thereafter, the tubes are removed from the water bath and Calcium Ionophore Solution (400 μg/ml A-23187; Sigma Chemical Co., St. Louis, MO) (0.025 ml), ^14 C-arachidonic acid (0.25 μCi in 0.025 ethanol; New England Nuclear Products, Boston, MA) (0.025 ml) and Ca^+2 solution (CaCl2.2H2 O); 105.8 mg/10 ml H2 O) (0.025 ml) are added in that order. The tubes are vortexed and returned to the water bath for 30 minutes. The reaction is then terminated by the addition of HCl (0.8N, 0.025 ml).
Extraction and concentration of ^14 C-labeled 5-HETE is performed as follows. First, a solution (5.01 ml) containing 2 parts ethyl acetate, 3 parts CH2 Cl2 and unlabeled arachidonic acid (0.01 ml) is added to each tube. The tubes are capped and briefly vortexed. The contents of each tube are poured into a polypropylene column fitted with a porous polyethylene disc and Whatman phase separation filter paper. The organic phase is collected by gravity filtration into a conical centrifuge tube, while the aqueous phase is retained in the column by the phase separation paper. Each culture tube is rinsed once with the EtOAc:CH2 Cl2 solution (no arachidonic acid) (0.1 ml) and the wash added to the column. The organic phase is concentrated (to 0.5 ml) using a Savant Speed Vac concentrator (Savant Instruments, Inc., Hicksville, NY).
After concentration of the organic phase, the tubes are vortexed and stored covered on ice. An aliquot (0.01 ml) is then removed for liquid scintillation counting in a Beckman LS7500 Liquid Scintillation Counter (Beckman Instruments Corp., Fullerton, CA). […] This volume is applied to a silica gel covered glass plate in a 10 mm streak. The remaining fluid in the tube is measured via syringe and noted.
The TLC plate is placed in a chromatography chamber containing the following solvent system: CHCl3 :MeOH:HOAc:H2 O(v/v; 90:9:1:0.65). The plate is then air dried and counter on a Berthold Linear TLC Analyzer (Berthold Instruments, Inc., Pittsburgh, PA) for 30 minutes per lane. The integrated area of the 5-HETE band for each compound is converted to percent of control and analyzed.

[3] = test system: MMC-16 cells, LTC4 release (lipoxygenase pathway); assay: Mouse Mastocytoma Cell Leukotriene Release; format: cell-based
Protocol: The MMC-16 cell line represents a convenient in vitro model for studying the lipoxygenase pathway and offers an effective screening method by which inhibitory test compounds can be identified.
Cultured MMC-16 cells are suspended in Ca^++ free phosphate buffer at a concentration of 10^7 cells/ml. The cell suspension is distributed into plastic culture tubes, 1 ml/tube. Duplicate tubes are used for each drug concentration tested, with drug solution (0.2 ml) added to each tube. An ionophore control consists of Ca^++ free buffer (0.2 ml) added to two tubes, and a blank (0.4 ml Ca^++ free buffer) added to two tubes. CaCl2 solution (0.1 ml) is added to the drug and ionophore control tubes, which are vortexed and incubated at 37° C. for 40 minutes. The tubes are then centrifuged at 1,000×g for 10 minutes, and the supernatants collected and added to 4 volumes of absolute ethanol. LTC4 content is then assayed for by either radioimmunoassay or high performance liquid chromatography.

[4] = test system: carrageenan induced paw edema in male CD rats; assay: Carrageenan Induced Paw Edema in Rats; format: in vivo, rat
Protocol: This test is used to determine the ability of a compound to affect non-immune acute inflammation. Edema is produced in the right hind paw of male CD rats (150±10 g) by the subplantar injection of carrageenan (0.1 ml of a 1 percent suspension in saline). Ten rats are used in each test group. Test compound or its vehicle is administered orally 1 hour prior to carrageenan injection. Paw volume is determined by calculating the amount of mercury displaced after immersing the paw to the level of the lateral malleolus. Foot volumes are measured just prior to test compound administration and again 3 hours after carrageenan injection and the difference designated as edema volume.

[5] = test system: reverse passive arthus reaction (paw swelling) in rats; assay: Reverse Passive Arthus Reaction; format: in vivo, rat
Protocol: The reverse passive arthus reaction is initiated by the interaction of antigen and antibody resulting in the formation of a precipitating immune complex, followed by fixation of complement, accumulation of leukocytes, edema and hemorrhage. The immunopathology of rheumatoid arthritis involves many of the parameters found in this reaction.
Test groups (5 rats per group) are dosed orally with compounds one hour prior to the sub-plantar injection into the right hind paw of rabbit anti-ovalbumin antibody (50 μg/0.1 ml). Immediately afterwards, ovalbumin (Sigma, #5503) (5 mg/0.2 ml) is injected i.v. via the tail vein. The right hind paw volume is measured at hourly intervals, from one to four hours after the injection of the immune reactants.
The change in paw volume for each animal is calculated by subtracting the zero hour paw volume (before injection) from the paw volume at the time of measurement. The mean of these values is calculated for each group. Results are expressed as percent inhibition of paw swelling compared to untreated controls.

[6] = test system: Human neutrophils (respiratory burst, H2O2 production); assay: Effect of Test Compound on H2O2 Production by Neutrophils (PMNs); format: cell-based; settings: for IC50: Homo sapiens, Neutrophil
Source text: During this process molecular oxygen is converted to superoxide anion, which in turn yields hydrogen peroxide, hydroxyl radical and products of myeloperoxidase action. These activated oxygen species contribute to the cells microbiocidal activity. However they have also been reported to contribute to the inflammatory process and tissue destruction in rheumatic diseases [J. Fantone and P. Ward, Amer. […] This assay measures the ability of a test compound to inhibit the respiratory burst process by its effect on hydrogen peroxide production.
Either 10 μL stock solution of test compound or 10 μL medium is added to the appropriate tubes, followed by 1 ml cells in each tube. The tubes are incubated at 37° C. for 15 minutes. To the PMA stimulated group 10 μL/tube 10^-5 M PMA is added. To the opsonized zymosan stimulated group 20 μL/tube 10 mg/ml opsonized zymosan is added. The tubes are mixed gently to disperse cells and stimulus (if any) and 100 μL is pipetted into each of four microtiter plates. The plates are covered and incubated 1 hour at 37° C. in CO2.
After the incubation period 10 μL 1N NaOH is added to each test well to develop the color. A blanking well is made up of 110 μl distilled water.
Mean OD values are calculated for each set of quadruplicate wells. Any artifactual change in absorbance due to a direct drug effect on the detection system is subtracted out from the ΔOD of the stimulated cells+drug tubes. The % inhibition of H2 O2 release by PMA or opsonized zymosan is calculated relative to the "O drug" control for each stimulus as follows: […]

## CC(C)(C)c1cc(C=Cc2ccncc2)cc(C(C)(C)C)c1O [4-[2-(3',5'-di-t-butyl-4'-hydroxyphenyl)ethenyl]pyridine, reference compound]
[1]; 50 mg/kg
  % Inhibition: 0%

## CC(C)(C)c1cc(C=Cc2cccnc2)cc(C(C)(C)C)c1O [Compound 1, 3-[2-(3,5-di-t-butyl-4-hydroxyphenyl)ethenyl]-pyridine]
[2]; 5.0 mg/kg, oral, daily days 14-27
  % Inhibition: 60%
[2]; 10.0 mg/kg, oral, daily days 14-27
  % Inhibition: 74%
[2]; 20.0 mg/kg, oral, daily days 14-27
  % Inhibition: 79%
[2]; 40.0 mg/kg, oral, daily days 14-27
  % Inhibition: 82%
[2]; in words
  activity in established adjuvant arthritis screen in the rat: active
[2]; rat established adjuvant arthritis, oral, daily days 14-27
  ED50: 4 mg/kg
In vivo
  TD50 at 24 h: 200 mg/kg
5-Lipoxygenase
  IC50: 3 µM
5-Lipoxygenase; 5 × 10^-5 M
  inhibition at 50 µM: 66%
5-Lipoxygenase; 5 × 10^-6 M
  inhibition at 5 µM: 68%
5-Lipoxygenase; 5 × 10^-7 M
  inhibition at 0.5 µM: 18%
5-Lipoxygenase; 10^-5 M
  inhibition at 10 µM: 67%
5-Lipoxygenase; 10^-6 M
  inhibition at 1 µM: 29%
5-Lipoxygenase; in words
  inhibition of 5-lipoxygenase: inhibit
[1]; 5 mg/kg
  % Inhibition: 56%
[1]; 50 mg/kg
  % Inhibition: 82%
[1]; in words
  activity in developing adjuvant arthritis screen in the rat: active
[3]; 3 × 10^-5 M
  inhibition at 30 µM: 100%
[3]; 3 × 10^-6 M
  inhibition at 3 µM: 18%
[3]; 10^-5 M
  inhibition at 10 µM: 67%
[3]; 10^-6 M
  inhibition at 1 µM: 0%
[3]; LTC4 release, MMC-16 cells
  IC50: 7 µM
[4]; 100 mg/kg, oral, 1 hour prior to carrageenan, edema at 3 hours
  % Inhibition: 56%
[4]; in words
  activity in carrageenan paw edema screen: active
[5]; 1 mg/kg oral, hour 1
  % Inhibition: 17%
[5]; 1 mg/kg oral, hour 2
  % Inhibition: 19%
[5]; 1 mg/kg oral, hour 3
  % Inhibition: 26%
[5]; 1 mg/kg oral, hour 4
  % Inhibition: 10%
[5]; 30 mg/kg oral, hour 1
  % Inhibition: 29%
[5]; 30 mg/kg oral, hour 2
  % Inhibition: 50%
[5]; 30 mg/kg oral, hour 3
  % Inhibition: 55%
[5]; 30 mg/kg oral, hour 4
  % Inhibition: 44%
[5]; 100 mg/kg oral, hour 1
  % Inhibition: 7%
[5]; 100 mg/kg oral, hour 2
  % Inhibition: 48%
[5]; 100 mg/kg oral, hour 3
  % Inhibition: 55%
[5]; 100 mg/kg oral, hour 4
  % Inhibition: 22%
[5]; in words
  activity in reverse passive arthus screen: active
[6]; read-out: Opsonized Zymosan Stimulated Oxidative Burst IC50
  IC50: 14 µM
[6]; read-out: PMA Stimulated Oxidative Burst IC50
  IC50: 25 µM
[6]; in words
  release of pro-inflammatory oxygen metabolites from stimulated neutrophils: inhibited

— US4743606A, “3-[2-(3',5'-di-t-butyl-4'-hydroxyphenyl)ethenyl]pyridine having anti-inflammatory and anti-arthritic properties” (Boehringer Ingelheim Pharmaceuticals, Inc., priority 1986, dated 1988)
